These results are taken from patent US20140096284A1, “METHOD FOR THE DELIVERY OF MOLECULES LYOPHILIZED ONTO MICROPARTICLES TO PLANT TISSUES” (priority 2012, published 2014).

For data set [1], the system named is onion epidermis tissue. In words: Biolistic delivery of molecules lyophilized onto 0.6 μm gold microcarriers to onion epidermis tissue. The class given is cell-based. To be noted: lyophilized onto 0.6 μm gold, observed about 30 minutes after bombardment. As to the method:
2 μL of 0.6 μm gold particle stock was mixed with 1 μg of GFP plasmid pLMNC95 or 2 μL of a 400 ng/μL, TRITC-BSA solution. The mixture was poured on a macrocarrier, frozen in liquid nitrogen and freeze-dry for 1 hour prior to onion epidermis tissue bombardment.
Onion epidermis tissue was obtained from the scale leaves of white onion bulbs. Rectangular (3×2.5 cm) pieces were peeled right before the bombardment and placed in solid agar media (0.5 mM of 2-(N-morpholino)ethanesulfonic acid (MES), 15 g L^−1 Bacto agar (BD), pH 5.7) with the peeled side upwards. For quantitative measurements, epidermis pieces of the same scale leaf were distributed among treatments. Tobacco leaves (Nicotiana tabacum var. Petite Havana) were obtained from 3-6 week old in vitro grown plants on MS media (MS medium (Murashige and Skoog, 1962), 2% sucrose, 2.5 g L^−1 gelrite, pH 5.7). Leaves were cut right before bombardment and put with the adaxial surface up on agar media. Hill maize immature embryos were obtained from immature ears provided by the Center for Plant Transformation—Iowa State University. […]
Bright field and fluorescence images were taken using a Zeiss Axio star plus microscope. […] For the green channel fluorescence images a GFP BP filter (Chroma Technology Corp.) was used (λex=470 nm, beam splitter=495 nm and λem=525 nm). […]

The subject of data set [2] is onion epidermis tissue. Kind of data set: Control: solution deposited or incubated on onion epidermis tissue without coated projectiles. The class given is cell-based. The following applies: solution on the surface of onion epidermis tissue. As to the method: The dye bromophenol blue was used to test the ability of the system to deliver a chemical. As a control, a saturated solution of the dye (10 μL of a 100 μg μL^−1 mg) was deposited with a pipette on top of onion epidermis tissue. […] For the bromophenol blue delivery, the saturated solution was mixed with 0.6 μm gold microcarriers and an aliquot was deposited over a macrocarrier set. This macrocarrier set was frozen in liquid nitrogen for 5-10 minutes and then lyophilized for an hour using a lyophilizer. This macrocarrier set was subsequently used to bombard onion epidermis tissue. […] The amount of dye delivered to each cell was different, and as a consequence, different shades of purple could be observed in the bombarded tissue (FIG. 3C).
Protein delivery can be considered a difficult challenge because proteins could be subjected to denaturation during the delivery process. […] This protein will not fluoresce if denatured (Ward and Bokman, 1982). As a control, to test if the protein could be diffused into plant cells, 10 μL of a 100 ng/μL eGFP solution were incubated for 30 minutes on the surface of intact onion epidermis tissue or bombarded with bare 0.6 μm gold microparticles. […] Lyophilization of eGFP onto 0.6 μm gold microcarriers was done using 2.5 μL of 1 μg μL^−1 solution of the protein and 60 μg of microcarriers per shot.

In data set [3] the test system is onion epidermis tissue. In words: Fluorescein diacetate staining, count of dead cells after bombardment. Format: cell-based. The following applies: 250 μg per shot. As for the experimental part: Onion epidermis tissues were submerged in 10 mL of MS liquid media to which 100 μL of a 5 mg mL^−1 of fluorescein diacetate (Alfa Aesar) solution in acetone were added. The samples were incubated for 2-5 minutes and directly observed under the green channel filter of the fluorescence microscope. For quantitative measurements, 12 images (10.5×8 mm) were taken with the 5× microscope objective scattered every 0.5 cm (4 columns×3 rows). The total amount of dead cells found on each image was counted.
The high concentration of protein used per shot (250 μg per shot) and the lyophilization process could cause cell death by: (1) physical damage of the potential clumps produced after lyophilizing protein and microparticles and (2) excess of intracellular protein delivery reaching toxic levels. To assess cellular death, onion epidermis tissues were stained with fluorescein diacetate, which stains in fluorescent green the living cells, while the dead ones remain dark (FIG. 7A). […]
As another example of active enzyme delivery, trypsin and RNAse A were chosen. […] The number of dead cells was measured using fluorescein diacetate staining in samples not bombarded, bombarded only with 0.6 μm gold or with 200 μg of trypsin or 40 μg of RNAse per shot. […]

Another data set deals with maize immature embryos. Kind of data set: Biolistic delivery of molecules lyophilized onto 0.6 μm gold to maize immature embryos. Format: cell-based. The following applies: 250 μg per shot lyophilized onto 0.6 μm gold; maize Hi II immature embryo scutella. As for the experimental part: (§1) Onion epidermis tissue was obtained from the scale leaves of white onion bulbs. Rectangular (3×2.5 cm) pieces were peeled right before the bombardment and placed in solid agar media (0.5 mM of 2-(N-morpholino)ethanesulfonic acid (MES), 15 g L^−1 Bacto agar (BD), pH 5.7) with the peeled side upwards. For quantitative measurements, epidermis pieces of the same scale leaf were distributed among treatments. Tobacco leaves (Nicotiana tabacum var. Petite Havana) were obtained from 3-6 week old in vitro grown plants on MS media (MS medium (Murashige and Skoog, 1962), 2% sucrose, 2.5 g L^−1 gelrite, pH 5.7). Leaves were cut right before bombardment and put with the adaxial surface up on agar media. Hill maize immature embryos were obtained from immature ears provided by the Center for Plant Transformation—Iowa State University. Immature embryos (1-2 mm long) were cultured as previously described (Frame et al., 2000).
(§2) The saturated solutions of chemical or biomolecules used were done as follows (data per shot): for bromophenol blue (Sigma) delivery 10 μL of a 100 μg 1 μL^−1 mg solution were used. For plasmid DNA delivery, 2 μL of a 500 ng μL^−1 solution of the plasmid pLMNC95 (Luke Mankin and Thompson, 2001) were used for GFP expression. For mCherry expression linear dsDNA, the plasmid ER-rk (Nelson et al., 2007) was digested with the restriction enzymes SacI-HindIII. […]

Another data set relates to tobacco leaf cells. Kind of data set: Biolistic delivery of molecules lyophilized onto 0.6 μm gold to tobacco leaf tissue. Format: cell-based, Nicotiana tabacum var. Petite Havana. The following applies: 250 μg per shot lyophilized onto 0.6 μm gold; tobacco leaves. As to the method: as §1, §2

Consider `O=S1(=O)OC(c2cc(Br)c(O)c(Br)c2)(c2cc(Br)c(O)c(Br)c2)c2ccccc21` [bromophenol blue, reference compound], for which the “intracellular delivery after bombardment” value in the data set with onion epidermis tissue [1] was “several cells were showing bluish-purple coloration”. Moreover, the “permeation or diffusion into cells without coated projectiles” value in the data set with onion epidermis tissue [2] is “did not permeate”.
Regarding “tetramethylrhodamine isothiocyanate labeled bovine serum albumin [TRITC-BSA]”, the “number of dead cells compared with bombardment without the protein” value with onion epidermis tissue [3] (1 day after bombardment, differences were not significant) was “higher”. In addition, the “viability of cells showing protein delivery” value in the data set on onion epidermis tissue [3] (stained 1 day after bombardment) is reported as “most of the cells showing TRITC-BSA delivery were alive”. The “protein delivery (red fluorescence)” value in the data set on maize immature embryos and in the data set on tobacco leaf cells was “delivery could be observed” throughout. In addition, the “intracellular delivery after bombardment” value with onion epidermis tissue [1] was “successfully delivered”.
